Results: patent US20250312468A1, “ANTI-PROTAC ANTIBODIES AND COMPLEXES” (Merck Patent GmbH, priority 2021, published 2025)
pIC50, pKd: −log10 of the molar value.

Key:
MIC2 = assay: SPR binding of PROTACs to immobilized antibody MIC2; conditions: MIC2, 1:1 kinetic binding model
Protocol: The binding affinities of hit antibodies MIC1 and MIC2 to a diverse set of VH032-based PROTACs (FIGS. 8A-8B) was determined by surface plasmon resonance (SPR) in a Biacore T200 instrument. The running buffer consist of PBS, 0.05% Tween-20, 2% DMSO and temperature and flow rate were set to 30° C. and 30 μL/min, respectively. The assay setup is depicted exemplarily in FIG. 7A. CM5 sensor chips were coated with antibody (=ligand; 2500 RU) using standard EDC/NHS chemistry. PROTACs (=analytes) were serially diluted (1 μM-1.9 nM) in running buffer, injected to the instrument in consecutive runs and were captured by the antibody resulting in an increase of the corresponding SPR response. After the association step (300 s), running buffer was injected for 600 s and the PROTAC dissociated from the antibody leading to signal decrease. After each run, residual bound PROTAC was removed from the immobilized antibody by injection of 10 mM glycine/HCl, pH 1.5 for 2×30 s regenerating the antibody for the next association and dissociation cycle. To compensate for matrix effects, the measured SPR response signal was subtracted by the analyte response to an inactivated (EDC/NHS, ethanol amine) reference surface omitting the ligand. Furthermore, a DMSO solvent correction was performed and analyte response was subtracted by the running buffer signal. The corrected response was fitted by a 1:1 kinetic binding model yielding the on- (kon) and off-rate (koff) of the PROTAC, as well as its dissociation constant (KD).

CD33xMIC11 = assay: SPR affinity of VHH clone (antibody fusion) to PROTACs; conditions: CD33xMIC11 immobilized, 25° C., read-out: KD [M] for antibody binding to PROTAC
In short: (§1)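 Kinetic rate constants and affinity were derived by fitting double-referenced sensorgrams to a 1:1 Langmuir model. PROTACs flowed at ten concentrations (1 μM down to 0.002 μM) over amine-coupled CD33 antibody–VHH fusions at 25° C, with DMSO solvent correction.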

CD33xMIC14 = assay: as above; conditions: CD33xMIC14 immobilized, 25° C., read-out: KD [M] for antibody binding to PROTAC
In short: as §1

CD33xMIC7 = assay: as above; conditions: CD33xMIC7 immobilized, 25° C., read-out: KD [M] for antibody binding to PROTAC
In short: as §1

CD33xMIC9 = assay: as above; conditions: CD33xMIC9 immobilized, 25° C., read-out: KD [M] for antibody binding to PROTAC
In short: as §1

CLL1xMIC7 = assay: as above; conditions: CLL1xMIC7 immobilized, 25° C., read-out: KD [M] for antibody binding to PROTAC
A431 = assay: CellTiter-Glo cell viability assay (VHH-based PAX); conditions: A431, PROTAC alone
Protocol: (§2) Several cell viability experiments were performed following the procedure described below: Cells were seeded in different media into white cell culture-treated flat and clear bottom multiwell plates followed by overnight incubation in a humid chamber at 37° C. and 5% CO2. Complexation was performed as described in chapter 7.4.
(§3) The solutions were added to the cells based on the antibody concentration using nanodrop dispension using a Tecan D300e Digital Dispenser and all wells were normalized to the same volume using 0.3% TW20 in PBS pH 7.4 and DMSO to a final solvent concentration of 0.05% DMSO and 0.003% TW20. Incubation was performed at 37° C. at 5% or 10% CO2 dependent on the medium. The assay was developed after 3 days if not otherwise stated using CellTiter-Glo Luminescent Cell Viability Assay as described in the manufacturer's protocol. In brief, the plates were equilibrated to room temperature for 30 minutes. 100 mL CellTiter-Glo Buffer were added to the CellTiter-Glo Substrate Flask and mixed well. 30 μL of the reagent was transferred to each well. After incubation for 3 minutes at room temperature while shaking at 550 rpm, the plate was incubated for another 10 minutes at room temperature. The luminescence was read on an Envision reader from Perkin Elmer. Solvent alone and Bortezomib (1.0E-05 M) served as high control (100% viability) and low control (0% viability), respectively. Raw data were converted into percent cell viability relative to the high and low control, which were set to 100% and 0%, respectively. […] The concentration corresponds to the concentration of PROTACs in the PAX.

HCC827 = assay: CellTiter-Glo cell viability assay (VHH-based PAX); conditions: HCC827, PROTAC alone
Protocol: as §2, §3

HEPG2 cells = assay: CellTiter-Glo cell viability assay (VHH-based PAX); conditions: HEPG2, PROTAC alone
Protocol: as §2, §3

MCF7 = assay: CellTiter-Glo cell viability assay (VHH-based PAX); conditions: MCF7, PROTAC alone
Protocol: as §2, §3

MDAMB468 cells = assay: CellTiter-Glo cell viability assay (VHH-based PAX); conditions: MDAMB468, PROTAC alone
Protocol: as §2, §3

SKOV3 = assay: CellTiter-Glo cell viability assay (VHH-based PAX); conditions: SKOV3, PROTAC alone
Protocol: as §2, §3

Which results are given for Cc1ncsc1-c1ccc([C@H](C)NC(=O)[C@@H]2C[C@@H](O)CN2C(=O)[C@@H](NC(=O)COCCCOCCNC(=O)C[C@@H]2N=C(c3ccc(Cl)cc3)c3c(sc(C)c3C)-n3c(C)nnc32)C(C)(C)C)cc1 [ARV771]?
pKd (MIC2): < 6.00; Kd (CD33xMIC11): 3.7e-09 M; Kd (CD33xMIC14): 1.4e-07 M; Kd (CD33xMIC7): 4.2e-09 M; Kd (CD33xMIC9): 4e-09 M; Kd (CLL1xMIC7): 8.8e-09 M; pIC50 (A431): 7.19; pIC50 (HCC827): 7.04; pIC50 (HEPG2 cells): 7.05; pIC50 (MCF7): 7.59; pIC50 (MDAMB468 cells): 7.31; pIC50 (SKOV3): 7.49

With Cc1ncsc1-c1ccc(CNC(=O)[C@@H]2C[C@@H](O)CN2C(=O)[C@@H](NC(=O)CCCCCCCCCCNC(=O)c2cc3c(cc2CS(C)(=O)=O)-c2cn(C)c(=O)c4[nH]cc(c24)CN3c2ncc(F)cc2F)C(C)(C)C)cc1 [GNE987] as the molecule, how does the pKd (MIC2) read?
Its pKd is 8.72.

What about the koff (MIC2) of the same molecule?
Its koff is “NM/4.10E−05 1/s”.

And the kon (MIC2)?
Its kon is “NM/2.20E+04 1/Ms”.

What about the Kd (CD33xMIC11) of the same molecule?
The Kd was 2e-08 M.

And the Kd (CD33xMIC14)?
The Kd was 1e-08 M.

And the Kd (CD33xMIC7)?
Its Kd is less than 1e-10 M.

What about the Kd (CD33xMIC9) of the same molecule?
The Kd was 4.3e-08 M.

What about the Kd (CLL1xMIC7) of the same molecule?
Its Kd is less than 1e-10 M.

What about the pIC50 (A431) of the same molecule?
Its pIC50 is 9.47.

What about the pIC50 (HCC827) of the same molecule?
The pIC50 was 9.11.

What about the pIC50 (HEPG2 cells) of the same molecule?
Its pIC50 is 8.59.

What about the pIC50 (MCF7) of the same molecule?
The pIC50 was 9.82.

And the pIC50 (MDAMB468 cells)?
The pIC50 was 9.39.

What about the pIC50 (SKOV3) of the same molecule?
Its pIC50 is 9.21.
